The nature of data set [1]: Hit confirmation in dose-response curve in HepG2 cytotoxicity assay, at 72h. It is filed as toxicity, cell-based. Set-up: timepoint 72 hour. The settings on record: human, HepG2 cells.
Data set [2] relates to Plasmodium falciparum. The experiment in a line: Hit confirmation in dose-response curve in NF54 pLDH assay, at 72h. It is filed as functional, organism-based. Also on record: timepoint 72 hour. The settings on record: NF54, Erythrocyte.
For data set [3], the system named is Plasmodium falciparum. The experiment in a line: Hit confirmation in dose-response curve in NF54 nanoGlo assay, at 12h. It is filed as functional, organism-based, Erythrocyte. Also on record: timepoint 12 hour. To be noted: Plasmodium falciparum, NF54, Erythrocyte, 12 h.
The test system of data set [4] is Plasmodium falciparum. Nature of the data set: Hit confirmation in dose-response curve in Dd2 pLDH assay, at 72h. It is filed as functional, organism-based. The settings on record: Dd2, Erythrocyte. Set-up: timepoint 72 hour.
Data set [5] has as its system Plasmodium falciparum. The experiment in a line: Hit confirmation in dose-response curve in NF54 nanoGlo assay, at 72h. It is filed as functional, organism-based, Erythrocyte. To be noted: Plasmodium falciparum, NF54, Erythrocyte, 72 h. Also on record: timepoint 72 hour.

As for `O=C(N1CCCN(c2nc3ccccc3nc2-c2ccccc2)CC1)C(Cl)(Cl)Cl`, the IC50 (in general, the concentration that inhibits the measured activity by half) at 72 h in data set [1] was over 10 µM. Besides, the IC50 stood at 7.24 µM in data set [2], 8.91 µM in data set [3], 5.13 µM in data set [4] and 2.88 µM in data set [5].

For `COc1cc2ncc3c(-c4ccc(C)c(C)c4)n[nH]c3c2cc1OC`, the IC50 at 72 h in data set [1] was over 10 µM. Also, the IC50 in data set [2] is over 10 µM; in data set [3], 7.59 µM; in data set [4] it was 5.25 µM; in data set [5] it was 4.27 µM.

`c1ccc(-c2cn3c(n2)c(-c2ccc4ccccc4n2)cc2ccccc23)cc1` returned an IC50 at 72 h in data set [1] of over 10 µM. Also, the IC50 is over 10 µM in data set [2], 10.5 µM in data set [3], over 10 µM in data set [4] and 8.13 µM in data set [5].

As to `O=C(Nc1nc2cccc(Cl)c2o1)c1cccc(F)c1`, the IC50 at 72 h in data set [1] was over 10 µM. Besides, the IC50 in data set [2] was 2 µM; in data set [3] it was over 10 µM; in data set [4], 2.51 µM; in data set [5], 1.32 µM.

Take `FC(F)(F)C1CN(c2nc(-c3ccccn3)nc3c2CCC3)C1`: the IC50 at 72 h in data set [1] was over 10 µM. The IC50 in data set [2] was found to be 2.45 µM; in data set [3], 2.45 µM; in data set [4] it was 2.29 µM; in data set [5], 1.29 µM.

Turning to `COc1ccc(-c2cc3n(n2)C[C@@](C)(C(=O)NCc2ccccc2)N(Cc2ccc4c(c2)OCO4)C3=O)cc1`, the IC50 at 72 h in data set [1] was over 10 µM. Moreover, the IC50 was over 10 µM in data set [2], 4.9 µM in data set [3], 9.55 µM in data set [4] and 2.45 µM in data set [5].

In the case of `CC(C)c1nc(C(=O)Nc2[nH]c(=O)ncc2F)cs1`, in data set [1], the IC50 at 72 h was over 10 µM. Also, the IC50 in data set [2] was 0.00214 µM; in data set [3], 0.955 µM; in data set [4], over 10 µM; in data set [5], 0.00195 µM.

Compound `CCN(CCN(C)C)C(=O)c1cccc(-c2ccc3nccc(N)c3c2)c1` yielded an IC50 at 72 h in data set [1] of over 10 µM. In addition, the IC50 in data set [2] amounted to 1.35 µM; in data set [3], 1.74 µM; in data set [4], 1 µM; in data set [5], 1.23 µM.

Turning to `COc1ccc(-c2cc3ncc(C(=O)c4cc(Cl)ccc4O)cn3n2)cc1`, the IC50 at 72 h in data set [1] was over 10 µM. For the same compound, the IC50 in data set [2] turned out to be 3.89 µM; in data set [3], 7.24 µM; in data set [4], 3.63 µM; in data set [5], 2.29 µM.

In the case of `O=C(Nc1ccccc1)Nc1cnc(-n2ccnc2)nc1`, in data set [1], the IC50 at 72 h is over 10 µM. Besides, the IC50 in data set [2] was determined as 3.55 µM; in data set [3], 4.68 µM; in data set [4], 5.5 µM; in data set [5], 2.63 µM.

In data set [1], `c1ccc(CCNc2nc(-c3ccccn3)cs2)cc1` yielded an IC50 at 72 h of over 10 µM. The IC50 in data set [2] was 3.24 µM; in data set [3], over 10 µM; in data set [4] it was 3.63 µM; in data set [5], 2.45 µM.

On to `CN(Cc1ccsc1)C(=O)c1cc2ccccc2[nH]1`, for which the IC50 at 72 h in data set [1] is over 10 µM. Also, the IC50 in data set [2], in data set [3], in data set [4] and in data set [5] was over 10 µM each time.

For `Cc1ccc(S(=O)(=O)Nc2c(S(=O)(=O)c3ccc(C)cc3)c3nc4ccccc4nc3n2C[C@H]2CCCO2)cc1`, the IC50 at 72 h in data set [1] was over 10 µM. Moreover, the IC50 was over 10 µM in data set [2], 1.35 µM in data set [3], over 10 µM in data set [4] and 2.57 µM in data set [5].

On to `CCCN1C(=O)c2ccccc2N2C(=O)CC[C@@]12C(=O)Nc1ccc(OC)cc1`, for which, in data set [1], the IC50 at 72 h was over 10 µM. In addition, the IC50 in data set [2] stood at 3.47 µM; in data set [3] it was 1.38 µM; in data set [4], 2.75 µM; in data set [5], 1.45 µM.

As to `CCOC(=O)c1cn(CC)c2cc(NC3CCCCC3)c(F)cc2c1=O`, the 50% inhibitory concentration (IC50) at 72 h in data set [1] was over 10 µM. Further, the half-maximal inhibitory concentration (IC50) in data set [2] is 2.29 µM; in data set [3], over 10 µM; in data set [4] it was 0.891 µM; in data set [5], 0.724 µM.

In turn, `Cc1c(C)n(CC(O)CNC(C)c2ccccc2)c2c(Cl)cccc12` (configuration not stated) displayed a half-inhibitory concentration (IC50) at 72 h in data set [1] of 10 µM. The half-maximal inhibitory concentration (IC50) was 9.77 µM in data set [2], 3.16 µM in data set [3], 8.51 µM in data set [4] and 2 µM in data set [5].

`CC[N+](CC)(CC(=O)OC1CC2CCC1(C)C2(C)C)CC(=O)OC1CC2CCC1(C)C2(C)C` (configuration not stated): the IC50 at 72 h in data set [1] is over 10 µM. For the same compound, the IC50 in data set [2] came to 2.82 µM; in data set [3] it was 4.68 µM; in data set [4], 2.19 µM; in data set [5] it was 1.82 µM.

As to `CN(C)CCN(C)c1ccc(Br)cc1NCc1cncn1C`, in data set [1], the IC50 at 72 h was over 10 µM. Further, the IC50 in data set [2] came to 3.47 µM; in data set [3], 3.72 µM; in data set [4], 2.95 µM; in data set [5], 2 µM.

Regarding `O=C(c1cccc(C(=O)N2CCN(C(c3ccccc3)c3ccccc3)CC2)c1)N1CCN(C(c2ccccc2)c2ccccc2)CC1`, the IC50 at 72 h in data set [1] is over 10 µM. The IC50 in data set [2], in data set [3], in data set [4] and in data set [5] was over 10 µM each time.

In data set [1], `CCc1c2c(=O)n(-c3nc4ccccc4s3)[nH]c2cc(=O)n1CCCN1CCOCC1` returned an IC50 at 72 h of over 10 µM. Also, the IC50 in data set [2] is 9.55 µM; in data set [3], 6.61 µM; in data set [4] it was over 10 µM; in data set [5], 4.57 µM.

In data set [1], `CC(=O)Nc1c(-c2ccc(C)cc2)c(C)nn1-c1ccc(C(=O)Nc2cc(C)ccn2)cc1` showed an IC50 at 72 h of over 10 µM. The IC50 was 9.55 µM in data set [2], over 10 µM in data set [3], 7.41 µM in data set [4] and 2.75 µM in data set [5].

As to `Cc1ccc(S(=O)(=O)Nc2c(S(=O)(=O)c3ccccc3)c3nc4ccccc4nc3n2CCc2ccccc2)cc1`, in data set [1], the IC50 at 72 h was over 10 µM. Also, the IC50 in data set [2] amounted to 6.76 µM; in data set [3], 3.63 µM; in data set [4], 5.13 µM; in data set [5], 2.14 µM.

`C[n+]1ccccc1/C=C/c1c[nH]c2ccccc12`: the midpoint of inhibition in data set [1], the IC50 at 72 h, lay at 7.94 µM. In addition, the IC50 in data set [2] came to 0.676 µM; in data set [3], 5.01 µM; in data set [4], 0.437 µM; in data set [5] it was 0.407 µM.

Take `Cc1ccc(-c2c[n+](-c3ccc(OC(F)F)cc3)c3n2CCCCC3)cc1`: the IC50 at 72 h in data set [1] was over 10 µM. Also, the IC50 in data set [2] is 1.66 µM; in data set [3], over 10 µM; in data set [4], 1.2 µM; in data set [5] it was 0.891 µM.

Compound `Cc1cc(=O)[nH]c(-n2nc(C3CC3)cc2NC(=O)c2ccc(C(C)(C)C)cc2)n1` gave a 50% inhibitory concentration (IC50) at 72 h in data set [1] of over 10 µM. In addition, the IC50 in data set [2] is over 10 µM; in data set [3], over 10 µM; in data set [4], over 10 µM; in data set [5], 1.86 µM.

Compound `COc1ccc(C)c2sc(N(CCCn3ccnc3)C(=O)Cc3ccc(F)cc3)nc12` gave an IC50 at 72 h in data set [1] of over 10 µM. The IC50 in data set [2] amounted to 4.37 µM; in data set [3], 2.95 µM; in data set [4], 4.37 µM; in data set [5] it was 1.95 µM.

As to `Brc1cccc(-c2ccc(-c3cc(-c4ccccc4)nnc3-c3ccccc3)o2)c1`, the IC50 at 72 h in data set [1] was over 10 µM. Further, the IC50 in data set [2] was over 10 µM; in data set [3], 2 µM; in data set [4], over 10 µM; in data set [5] it was 6.61 µM.

Regarding `CC(C)O[C@@H]1CCN(C[C@H](O)c2ccc(C(F)(F)F)cc2)C1`, in data set [1], the IC50 at 72 h was over 10 µM. In addition, the IC50 was 3.09 µM in data set [2], 3.31 µM in data set [3], 2.82 µM in data set [4] and 2.09 µM in data set [5].

The compound `CC[N+](C)(CC)CCOc1cc(C)c2ccccc2n1` had an IC50 at 72 h in data set [1] of over 10 µM. Besides, the IC50 was 4.68 µM in data set [2], over 10 µM in data set [3], 2.69 µM in data set [4] and 2.24 µM in data set [5].

`CC(NCC(O)Cn1c(-c2ccccc2)c(-c2ccccc2)c2ccc3ccccc3c21)c1ccccc1` (configuration not stated): the IC50 at 72 h in data set [1] was over 10 µM. For the same compound, the IC50 was found to be 9.12 µM in data set [2], 1.95 µM in data set [3], 7.94 µM in data set [4] and 1.62 µM in data set [5].

For `COc1ccc(-c2c(-c3cccc(OC)c3)[nH]c3c2c(=O)[nH]c(=O)n3C)cc1`, the IC50 at 72 h in data set [1] was over 10 µM. In addition, the IC50 in data set [2], in data set [3], in data set [4] and in data set [5] was over 10 µM in each case.

In the case of `CN1CC[C@H](CN(C)Cc2ccc3cc(O)ccc3c2)C1`, the IC50 at 72 h in data set [1] is over 10 µM. Besides, the IC50 in data set [2] is 0.832 µM; in data set [3] it was 4.27 µM; in data set [4] it was 3.02 µM; in data set [5] it was 1.78 µM.

In data set [1], `CCCCCn1c(NCc2cc(Cl)ccc2O)nc2ccccc21` showed an IC50 at 72 h of over 10 µM. Also, the IC50 in data set [2] worked out at 8.71 µM; in data set [3], 6.76 µM; in data set [4], 7.41 µM; in data set [5] it was 3.63 µM.

`O=C(Nc1nncs1)c1cccc(C(=O)Nc2nncs2)n1`: in data set [1], the IC50 at 72 h is over 10 µM. Besides, the IC50 in data set [2] is 3.24 µM; in data set [3], over 10 µM; in data set [4] it was 3.31 µM; in data set [5], 1.95 µM.

Take `Cc1cc(C)cc(-c2cc3nc(C)cc(N4CCC(C(=O)NCc5cccc(F)c5)CC4)n3n2)c1`: the IC50 at 72 h in data set [1] was over 10 µM. In addition, the IC50 in data set [2] was found to be 2.45 µM; in data set [3], 4.37 µM; in data set [4], 2.04 µM; in data set [5] it was 1.48 µM.

With `O=C(CCCc1ccccc1)Nc1cc(C2CC2)nn1-c1nc(-c2ccccc2)cc(=O)[nH]1`, in data set [1], the IC50 at 72 h was over 10 µM. Also, the IC50 in data set [2] is 6.03 µM; in data set [3], over 10 µM; in data set [4], 3.63 µM; in data set [5], 3.72 µM.

In data set [1], `NC(=O)C1CCN(CCC(=O)N2CCc3cc4ccc3[C@@H]2c2cccc(c2)OCCCNC(=O)c2cc(ccc2O)O4)CC1` came in with an IC50 at 72 h of over 10 µM. The same compound showed an IC50 in data set [3] of 3.16 µM.

The record behind these values is ChEMBL document CHEMBL4888484, “Replenishing the malaria drug discovery pipeline: Screening and hit evaluation of the MMV Hit Generation Library 1 (HGL1) against asexual blood stage Plasmodium falciparum ,using a nano luciferase reporter read-out” (2022).
